Reference: ChEMBL document CHEMBL3046027, “In vitro and in vivo antifungal activity of synthetic pure isothiocyanates against Sclerotinia sclerotiorum” (Pest Manag Sci, 2011)

Columns and labels:
Sclerotinia sclerotiorum [1] = assay: Fungitoxic activity in Sclerotinia sclerotiorum assessed as inhibition of mycelial growth in volatile phase at 1020 umol/l measured at 20 degC after 5 days relative to control; format: functional; details: 120 h, read-out: GI
Sclerotinia sclerotiorum [2] = assay: Antifungal activity against Sclerotinia sclerotiorum assessed as inhibition of mycelial growth in volatile phase at 714 umol/l measured at 20 degC after 5 days; format: functional; details: 120 h, read-out: GI
Sclerotinia sclerotiorum [3] = assay: Antifungal activity against Sclerotinia sclerotiorum assessed as inhibition of mycelial growth in volatile phase at 51 umol/l measured at 20 degC after 5 days; format: functional; details: 120 h, read-out: GI
Sclerotinia sclerotiorum [4] = assay: Fungistatic activity in Sclerotinia sclerotiorum assessed as inhibition of carpogenic germination in volatile phase at 1020 umol/l measured at 20 degC after 5 days relative to control; format: functional; details: 120 h
Sclerotinia sclerotiorum [5] = assay: Antifungal activity against Sclerotinia sclerotiorum assessed as inhibition of mycelial growth in volatile phase at 510 umol/l measured at 20 degC after 5 days; format: functional; details: 120 h, read-out: GI
Sclerotinia sclerotiorum [6] = assay: Antifungal activity against Sclerotinia sclerotiorum assessed as inhibition of mycelial growth in contact phase at 3065 umol/l measured at 20 degC after 5 days; format: functional; details: 120 h, read-out: GI
Sclerotinia sclerotiorum [7] = assay: Antifungal activity against Sclerotinia sclerotiorum assessed as inhibition of mycelial growth in contact phase at 1022 umol/l measured at 20 degC after 5 days; format: functional; details: 120 h, read-out: GI
Sclerotinia sclerotiorum [8] = assay: Fungistatic activity in Sclerotinia sclerotiorum assessed as inhibition of mycelial growth in contact phase at 3065 umol/l measured at 20 degC after 5 days relative to control; format: functional; details: 120 h, read-out: GI
Sclerotinia sclerotiorum [9] = assay: Antifungal activity against Sclerotinia sclerotiorum assessed as inhibition of germination in volatile phase at 511 umol/l measured at 20 degC after 5 days; format: functional; details: 120 h
Sclerotinia sclerotiorum [10] = assay: Antifungal activity against Sclerotinia sclerotiorum assessed as inhibition of mycelial growth in contact phase at 920 umol/l measured at 20 degC after 5 days; format: functional; details: 120 h, read-out: GI
Sclerotinia sclerotiorum [11] = assay: Antifungal activity against Sclerotinia sclerotiorum assessed as inhibition of germination in volatile phase at 102 umol/l measured at 20 degC after 5 days; format: functional; details: 120 h
Sclerotinia sclerotiorum [12] = assay: Antifungal activity against Sclerotinia sclerotiorum assessed as inhibition of mycelial growth in contact phase at 715 umol/l measured at 20 degC after 5 days; format: functional; details: 120 h, read-out: GI
Sclerotinia sclerotiorum [13] = assay: Fungistatic activity in Sclerotinia sclerotiorum assessed as inhibition of carpogenic germination in volatile phase at 510 umol/l measured at 20 degC after 5 days relative to control; format: functional; details: 120 h
Sclerotinia sclerotiorum [14] = assay: Antifungal activity against Sclerotinia sclerotiorum assessed as inhibition of germination in volatile phase at 1022 umol/l measured at 20 degC after 5 days; format: functional; details: 120 h
Sclerotinia sclerotiorum [15] = assay: In vivo antifungal Sclerotinia sclerotiorum in Pepper (Capsicum annuum L. cv. Sera Demre) assessed as inhibition of mycelial growth in volatile phase at 102 umol/L measured after 10 to 14 weeks; format: functional
Sclerotinia sclerotiorum [16] = assay: Antifungal activity against Sclerotinia sclerotiorum assessed as inhibition of mycelial growth in volatile phase at 102 umol/l measured at 20 degC after 5 days; format: functional; details: 120 h, read-out: GI
Sclerotinia sclerotiorum [17] = assay: In vivo antifungal Sclerotinia sclerotiorum in Pepper (Capsicum annuum L. cv. Sera Demre) assessed as inhibition of mycelial growth in volatile phase at 204 umol/L measured after 10 to 14 weeks; format: functional
Sclerotinia sclerotiorum [18] = assay: Fungistatic activity in Sclerotinia sclerotiorum assessed as inhibition of mycelial growth in contact phase measured at 20 degC after 5 days; format: functional, organism-based; details: 120 h
Sclerotinia sclerotiorum [19] = assay: Fungistatic activity in Sclerotinia sclerotiorum assessed as inhibition of carpogenic germination in volatile phase at 51 umol/l measured at 20 degC after 5 days relative to control; format: functional; details: 120 h
Sclerotinia sclerotiorum [20] = assay: Antifungal activity against Sclerotinia sclerotiorum assessed as inhibition of germination in volatile phase at 51 umol/l measured at 20 degC after 5 days; format: functional; details: 120 h
Sclerotinia sclerotiorum [21] = assay: Antifungal activity against Sclerotinia sclerotiorum assessed as inhibition of germination in volatile phase at 307 umol/l measured at 20 degC after 5 days; format: functional; details: 120 h
Sclerotinia sclerotiorum [22] = assay: Fungistatic activity in Sclerotinia sclerotiorum assessed as inhibition of mycelial growth in volatile phase measured at 20 degC after 5 days; format: functional, organism-based; details: 120 h
Sclerotinia sclerotiorum [23] = assay: Fungistatic activity in Sclerotinia sclerotiorum assessed as inhibition of mycelial growth in volatile phase at 714 umol/l measured at 20 degC after 5 days relative to control; format: functional; details: 120 h, read-out: GI
Sclerotinia sclerotiorum [24] = assay: Fungistatic activity in Sclerotinia sclerotiorum assessed as inhibition of carpogenic germination in volatile phase at 102 umol/l measured at 20 degC after 5 days relative to control; format: functional; details: 120 h
Sclerotinia sclerotiorum [25] = assay: Antifungal activity against Sclerotinia sclerotiorum assessed as inhibition of mycelial growth in volatile phase at 1020 umol/l measured at 20 degC after 5 days; format: functional; details: 120 h, read-out: GI
Sclerotinia sclerotiorum [26] = assay: Antifungal activity against Sclerotinia sclerotiorum assessed as inhibition of mycelial growth in contact phase at 2043 umol/l measured at 20 degC after 5 days; format: functional; details: 120 h, read-out: GI

## C=CCN=C=S [ALLYL ISOTHIOCYANATE]
Sclerotinia sclerotiorum [1]
  inhibition of growth at 1020 µM: 100%
Sclerotinia sclerotiorum [2]
  inhibition of growth at 714 µM: 100%
Sclerotinia sclerotiorum [3]
  inhibition of growth at 51 µM: 45.7%
Sclerotinia sclerotiorum [4]
  inhibition at 1020 µM: 75%
Sclerotinia sclerotiorum [5]
  inhibition of growth at 510 µM: 87%
Sclerotinia sclerotiorum [6]
  inhibition of growth at 3065 µM: 100%
Sclerotinia sclerotiorum [7]
  inhibition of growth at 1022 µM: 45.5%
Sclerotinia sclerotiorum [8]
  inhibition of growth at 3065 µM: 100%
Sclerotinia sclerotiorum [9]
  inhibition at 511 µM: 0%
Sclerotinia sclerotiorum [10]
  inhibition of growth at 920 µM: 37.7%
Sclerotinia sclerotiorum [11]
  inhibition at 102 µM: 0%
Sclerotinia sclerotiorum [12]
  inhibition of growth at 715 µM: 32%
Sclerotinia sclerotiorum [13]
  inhibition at 510 µM: 67.5%
Sclerotinia sclerotiorum [14]
  inhibition at 1022 µM: 0%
Sclerotinia sclerotiorum [15]
  inhibition in vivo at 102 µM: 76.7%
Sclerotinia sclerotiorum [16]
  inhibition of growth at 102 µM: 50.7%
Sclerotinia sclerotiorum [17]
  inhibition in vivo at 204 µM: 81.7%
Sclerotinia sclerotiorum [18]
  EC50: 1060 µM
Sclerotinia sclerotiorum [19]
  inhibition at 51 µM: 60%
Sclerotinia sclerotiorum [20]
  inhibition at 51 µM: 0%
Sclerotinia sclerotiorum [21]
  inhibition at 307 µM: 0%
Sclerotinia sclerotiorum [22]
  EC50: 71.5 µM
Sclerotinia sclerotiorum [23]
  inhibition of growth at 714 µM: 100%
Sclerotinia sclerotiorum [24]
  inhibition at 102 µM: 67.5%
Sclerotinia sclerotiorum [25]
  inhibition of growth at 1020 µM: 100%
Sclerotinia sclerotiorum [26]
  inhibition of growth at 2043 µM: 77%
